Reference: ChEMBL document CHEMBL5154748, “Discovery of novel 3-butyl-6-benzyloxyphthalide Mannich base derivatives as multifunctional agents against Alzheimer's disease” (Bioorg Med Chem, 2022)
Active and inactive are the calls of the source. The rule behind the calls is not given here.

Columns and labels:
Acetylcholinesterase [1] = molecular target: Acetylcholinesterase (Electrophorus electricus, UniProt O42275); experiment: Inhibition of Electric eel AChE by Ellman's method
Acetylcholinesterase [2] = molecular target: T1, Acetylcholinesterase (Homo sapiens, UniProt P22303); experiment: Inhibition of Human AChE by Ellman's method
[3] = molecular target: Butyrylcholinesterase (Rattus norvegicus) (UniProt Q9JKC1); experiment: Inhibition of Rat BuChE at 10 uM by Ellman's method
[4] = molecular target: T2, Amine oxidase [flavin-containing] A (Homo sapiens, UniProt P21397); experiment: Inhibition of human MAO-A at 10 uM by fluorescence assay
T2 sequence (P21397 whole entry): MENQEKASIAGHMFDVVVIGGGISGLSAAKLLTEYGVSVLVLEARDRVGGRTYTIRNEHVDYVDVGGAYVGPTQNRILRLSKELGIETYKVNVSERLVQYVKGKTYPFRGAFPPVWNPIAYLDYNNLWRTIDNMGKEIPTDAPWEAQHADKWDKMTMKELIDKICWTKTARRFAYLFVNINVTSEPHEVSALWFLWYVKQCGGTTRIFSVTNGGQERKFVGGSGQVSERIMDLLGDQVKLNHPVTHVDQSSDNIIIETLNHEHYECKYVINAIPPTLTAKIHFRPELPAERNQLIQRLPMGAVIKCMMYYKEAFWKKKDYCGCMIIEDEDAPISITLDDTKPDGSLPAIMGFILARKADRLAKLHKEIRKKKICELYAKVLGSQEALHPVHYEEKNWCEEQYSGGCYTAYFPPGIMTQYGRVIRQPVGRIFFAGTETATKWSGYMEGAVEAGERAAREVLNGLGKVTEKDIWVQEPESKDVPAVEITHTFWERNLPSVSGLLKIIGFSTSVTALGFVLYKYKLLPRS

[5] = molecular target: T3, Amine oxidase [flavin-containing] B (Homo sapiens, UniProt P27338); experiment: Inhibition of human MAO-B by fluorescence assay
T3 sequence (P27338 whole entry): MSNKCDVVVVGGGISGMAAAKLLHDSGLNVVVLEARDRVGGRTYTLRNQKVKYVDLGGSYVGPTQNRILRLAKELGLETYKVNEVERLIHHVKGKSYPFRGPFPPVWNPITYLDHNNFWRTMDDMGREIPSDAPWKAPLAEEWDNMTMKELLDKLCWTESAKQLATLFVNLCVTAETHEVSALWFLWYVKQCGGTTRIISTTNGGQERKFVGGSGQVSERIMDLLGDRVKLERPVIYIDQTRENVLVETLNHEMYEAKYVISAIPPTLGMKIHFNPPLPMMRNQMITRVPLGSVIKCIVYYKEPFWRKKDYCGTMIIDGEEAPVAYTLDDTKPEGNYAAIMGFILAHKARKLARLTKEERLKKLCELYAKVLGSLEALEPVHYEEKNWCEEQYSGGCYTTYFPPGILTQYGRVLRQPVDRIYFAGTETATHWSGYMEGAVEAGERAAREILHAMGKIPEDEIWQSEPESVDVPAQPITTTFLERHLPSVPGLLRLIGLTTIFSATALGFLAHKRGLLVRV

[6] = Antioxidant activity assessed as trolox equivalent of ORAC radical scavenging activity by ORAC-FL assay; assay type: functional
[7] = molecular target: T3, Amine oxidase [flavin-containing] B; experiment: Inhibition of human MAO-B at 10 uM by fluorescence assay
[8] = molecular target: Acetylcholinesterase (Electrophorus electricus) (UniProt O42275); experiment: Inhibition of Electric eel AChE at 10 uM by Ellman's method
BV-2 [9] = experiment: Antineuroinflammatory activity in mouse BV-2 cells assessed as inhibition of LPS-induced NO production at 0.5 uM after 24 hrs by Griess reagent based assay; assay type: functional
PC-12 [10] = experiment: Neuroprotective against H2O2-induced rat PC-12 cell injury assessed as cell viability at 10 uM by MTT assay (reference value: 48.0%); assay type: functional; conditions: read-out: Activity
BV-2 [11] = experiment: Inhibition of LPS-induced ROS production in mouse BV-2 cells at 10 uM by DCFH-DA staining based fluorescence analysis; assay type: functional, cell-based
BV-2 [12] = experiment: Antineuroinflammatory activity in mouse BV-2 cells assessed as inhibition of LPS-induced NO production at 2.5 uM after 24 hrs by Griess reagent based assay; assay type: functional
BV-2 [13] = experiment: Antineuroinflammatory activity in mouse BV-2 cells assessed as inhibition of LPS-induced NO production at 10 uM after 24 hrs by Griess reagent based assay; assay type: functional
BV-2 [14] = experiment: Antineuroinflammatory activity in mouse BV-2 cells assessed as inhibition of LPS-induced TNF-alpha production at 0.5 uM after 24 hrs by ELISA; assay type: functional
BV-2 [15] = experiment: Antineuroinflammatory activity in mouse BV-2 cells assessed as inhibition of LPS-induced TNF-alpha production at 2.5 uM after 24 hrs by ELISA; assay type: functional
BV-2 [16] = experiment: Antineuroinflammatory activity in mouse BV-2 cells assessed as inhibition of LPS-induced TNF-alpha production at 10 uM after 24 hrs by ELISA; assay type: functional
Acetylcholinesterase [17] = molecular target: T1, Acetylcholinesterase; experiment: Mixed type inhibition of AChE (unknown origin) by Lineweaver-Burk plot analysis
[18] = Metal chelating activity assessed as Cu2+-compound complex formation at 37.5 uM by UV-visible spectrophotometry
[19] = Inhibition of reactive oxygen species production using Cu-ascorbate redox system by coumarin-3-carboxylic acid dye based fluorescence analysis; assay type: functional
PC-12 [20] = experiment: Cytotoxicity against rat PC12 cells assessed as decrease in cell viability at 100 uM by MTT assay; assay type: toxicity, cell-based; conditions: pc-12, 100 µM
PC-12 [21] = experiment: Neuroprotective against H2O2-induced rat PC-12 cell injury assessed as cell viability at 25 uM by MTT assay (reference value: 48.0%); assay type: functional; conditions: read-out: Activity
PC-12 [22] = experiment: Neuroprotective against H2O2-induced rat PC-12 cell injury assessed as cell viability at 4 uM by MTT assay (reference value: 48.0%); assay type: functional; conditions: read-out: Activity
BV-2 [23] = experiment: Cytotoxicity against mouse BV-2 cells at 10 uM by MTT method; assay type: toxicity, cell-based; conditions: bv-2, 10 µM
BV-2 [24] = experiment: Cytotoxicity against mouse BV-2 cells at 10 uM in presence of LPS by MTT method; assay type: toxicity, cell-based; conditions: bv-2, 10 µM
BV-2 [25] = experiment: Inhibition of LPS-induced ROS production in mouse BV-2 cells assessed as complete reversal at 10 uM by DCFH-DA staining based fluorescence analysis; assay type: functional, cell-based
BV-2 [26] = experiment: Inhibition of LPS-induced ROS production in mouse BV-2 cells at 2.5 uM by DCFH-DA staining based fluorescence analysis; assay type: functional, cell-based

T1 sequence (P22303 whole entry): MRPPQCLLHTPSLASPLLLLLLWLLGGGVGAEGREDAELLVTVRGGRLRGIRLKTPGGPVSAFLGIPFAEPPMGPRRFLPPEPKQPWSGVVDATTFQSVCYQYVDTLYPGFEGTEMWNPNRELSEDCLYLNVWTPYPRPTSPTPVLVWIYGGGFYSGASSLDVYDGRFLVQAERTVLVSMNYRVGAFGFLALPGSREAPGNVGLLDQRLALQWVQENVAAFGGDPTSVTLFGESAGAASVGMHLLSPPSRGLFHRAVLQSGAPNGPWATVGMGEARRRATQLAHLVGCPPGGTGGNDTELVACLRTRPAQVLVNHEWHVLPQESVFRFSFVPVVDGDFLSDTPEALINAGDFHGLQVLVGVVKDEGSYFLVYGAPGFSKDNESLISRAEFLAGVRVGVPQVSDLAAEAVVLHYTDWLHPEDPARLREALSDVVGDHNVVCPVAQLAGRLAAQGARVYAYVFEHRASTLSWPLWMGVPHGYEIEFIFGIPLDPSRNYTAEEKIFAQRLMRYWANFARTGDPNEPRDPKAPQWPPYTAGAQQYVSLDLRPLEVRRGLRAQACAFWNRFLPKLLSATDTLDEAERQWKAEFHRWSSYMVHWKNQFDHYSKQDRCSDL
Acetylcholinesterase (Electrophorus electricus, UniProt O42275), sequence (O42275 whole entry): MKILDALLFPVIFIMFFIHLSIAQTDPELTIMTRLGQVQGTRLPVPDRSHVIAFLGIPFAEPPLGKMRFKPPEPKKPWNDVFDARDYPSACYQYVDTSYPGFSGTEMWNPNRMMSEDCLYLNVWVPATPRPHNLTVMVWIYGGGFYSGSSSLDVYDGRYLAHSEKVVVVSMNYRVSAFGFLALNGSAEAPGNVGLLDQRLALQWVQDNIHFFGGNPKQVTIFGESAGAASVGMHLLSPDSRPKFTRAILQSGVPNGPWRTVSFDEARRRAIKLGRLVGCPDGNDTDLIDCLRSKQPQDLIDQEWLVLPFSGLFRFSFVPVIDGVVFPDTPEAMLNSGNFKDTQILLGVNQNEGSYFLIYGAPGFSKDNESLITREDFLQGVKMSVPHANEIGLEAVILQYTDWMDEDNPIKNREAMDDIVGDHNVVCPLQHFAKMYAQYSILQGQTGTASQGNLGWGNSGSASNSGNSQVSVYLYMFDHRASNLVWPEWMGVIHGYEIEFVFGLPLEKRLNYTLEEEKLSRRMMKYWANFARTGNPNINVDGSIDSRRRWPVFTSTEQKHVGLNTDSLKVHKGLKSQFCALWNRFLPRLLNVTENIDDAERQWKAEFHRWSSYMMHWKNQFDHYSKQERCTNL
Acetylcholinesterase (Electrophorus electricus), sequence (O42275 24-633 limits assumed): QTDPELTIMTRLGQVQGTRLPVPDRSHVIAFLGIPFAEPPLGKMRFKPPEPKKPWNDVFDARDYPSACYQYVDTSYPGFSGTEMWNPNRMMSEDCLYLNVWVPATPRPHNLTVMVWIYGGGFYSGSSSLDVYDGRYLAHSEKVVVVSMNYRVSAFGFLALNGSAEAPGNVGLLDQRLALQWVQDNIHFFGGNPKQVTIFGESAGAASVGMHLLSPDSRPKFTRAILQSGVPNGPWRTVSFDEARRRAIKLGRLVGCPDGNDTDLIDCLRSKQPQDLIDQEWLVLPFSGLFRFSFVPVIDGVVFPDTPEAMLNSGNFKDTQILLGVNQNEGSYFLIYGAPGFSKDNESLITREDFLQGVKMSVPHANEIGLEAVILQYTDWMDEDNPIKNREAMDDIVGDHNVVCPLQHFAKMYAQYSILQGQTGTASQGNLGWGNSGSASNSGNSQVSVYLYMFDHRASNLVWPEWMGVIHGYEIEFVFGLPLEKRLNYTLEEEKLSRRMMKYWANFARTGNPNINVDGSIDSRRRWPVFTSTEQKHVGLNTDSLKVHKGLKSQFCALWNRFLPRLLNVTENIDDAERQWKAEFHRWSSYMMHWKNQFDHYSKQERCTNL
Butyrylcholinesterase (Rattus norvegicus), sequence (Q9JKC1 as listed by the source): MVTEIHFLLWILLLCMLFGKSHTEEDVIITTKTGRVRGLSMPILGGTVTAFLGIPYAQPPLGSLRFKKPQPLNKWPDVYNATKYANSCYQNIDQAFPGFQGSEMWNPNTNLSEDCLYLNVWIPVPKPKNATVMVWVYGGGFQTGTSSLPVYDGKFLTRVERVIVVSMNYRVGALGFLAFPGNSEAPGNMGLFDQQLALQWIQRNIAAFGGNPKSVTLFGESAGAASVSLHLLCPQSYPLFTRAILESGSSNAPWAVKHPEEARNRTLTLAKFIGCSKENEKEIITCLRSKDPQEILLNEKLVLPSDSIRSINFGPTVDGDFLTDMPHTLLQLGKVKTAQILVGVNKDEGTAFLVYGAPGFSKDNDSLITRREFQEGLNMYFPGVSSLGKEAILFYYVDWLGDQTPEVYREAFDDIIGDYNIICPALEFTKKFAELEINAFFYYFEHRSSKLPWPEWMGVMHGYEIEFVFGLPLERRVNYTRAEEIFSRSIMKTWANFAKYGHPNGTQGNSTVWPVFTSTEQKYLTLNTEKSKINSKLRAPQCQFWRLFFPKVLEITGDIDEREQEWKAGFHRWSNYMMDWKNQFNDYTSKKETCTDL

| Structure (SMILES) | IC50 (Acetylcholinesterase [1]) [µM] | IC50 (Acetylcholinesterase [2]) [µM] | inhibition [3] [%] | inhibition at 10 µM [4] [%] | IC50 [5] [µM] | Activity [6] | inhibition at 10 µM [7] [%] | further results |
| --- | --- | --- | --- | --- | --- | --- | --- | --- |
| CCCCC1OC(=O)c2cc(OCc3ccc(CN4CCN(C)CC4)c(O)c3)ccc21 (configuration not stated) | 13.6 | 23.8 | < 5 | 22.5 | 2.39 | 0.96 | – | – |
| CCCCC1OC(=O)c2cc(OCc3ccc(CN(CC)CC)c(O)c3)ccc21 (configuration not stated) | 0.64 | 0.35 | 8.1 | 26.3 | 6.81 | 1.53 | – | – |
| CCCCC1OC(=O)c2cc(OCc3ccc(CN4CCOCC4)c(O)c3)ccc21 (configuration not stated) | 8.37 | 3.32 | < 5 | 27.9 | 1.42 | 1.12 | – | – |
| CCCCC1OC(=O)c2cc(OCc3cccc(CN(CC)CC)c3O)ccc21 (configuration not stated) | 20.9 | – | < 5 | 20.4 | – | 2.02 | 5.2 | – |
| CCCCC1OC(=O)c2cc(OCc3ccccc3O)ccc21 (configuration not stated) | – | – | < 5 | 30.3 | 2.07 | 1.03 | – | inhibition [8]: 20.3% |
| CCCCC1OC(=O)c2cc(OCc3cccc(O)c3)ccc21 (configuration not stated) | – | – | < 5 | 29.3 | 3.3 | 0.88 | – | inhibition [8]: 38.6% |
| CCCCC1OC(=O)c2cc(OCc3ccc(CN4CCN(CC)CC4)c(O)c3)ccc21 (configuration not stated) | 14.8 | – | 6.5 | 17.5 | 2.53 | 0.77 | – | – |
| CCCCC1OC(=O)c2ccccc21 (racemic) [RAC-3-N-BUTYLPHTHALIDE] | – | – | – | – | – | 0.21 | – | inhibition at 0.5 µM (BV-2 [9]): 13.4%; viability at 10 µM (PC-12 [10]): 64.1%; inhibition (BV-2 [11]): Active; inhibition at 2.5 µM (BV-2 [12]): 22.9%; inhibition at 10 µM (BV-2 [13]): 37.2%; inhibition at 0.5 µM (BV-2 [14]): 15.2%; inhibition at 2.5 µM (BV-2 [15]): 27.6%; inhibition at 10 µM (BV-2 [16]): 43.7% |
| CCCCC1OC(=O)c2cc(OCc3cccc(CN4CCCC4)c3O)ccc21 (configuration not stated) | 26.7 | – | 5.8 | 23.5 | – | 2.38 | 6.9 | – |
| CCCCC1OC(=O)c2cc(OCc3cccc(CN(CC)Cc4ccccc4)c3O)ccc21 (configuration not stated) | – | – | < 5 | 5.4 | – | 1.86 | 12.5 | inhibition [8]: 15.3% |
| CCCCC1OC(=O)c2cc(OCc3ccc(CN4CCCC4)c(O)c3)ccc21 (configuration not stated) | 0.89 | 3.92 | 10 | 23.7 | 0.94 | 1.73 | – | – |
| CCCCC1OC(=O)c2cc(OCc3cccc(CN4CCOCC4)c3O)ccc21 (configuration not stated) | 22.4 | – | 5.8 | 18.4 | 7.63 | 2.14 | – | – |
| CCCCC1OC(=O)c2cc(OCc3cccc(CN4CCCCC4)c3O)ccc21 (configuration not stated) | 14.5 | – | 14.2 | 20 | – | 1.84 | 12.8 | – |
| CCCCC1OC(=O)c2cc(OCc3cccc(CN4CCN(CC)CC4)c3O)ccc21 (configuration not stated) | – | – | < 5 | 12.8 | – | 1.67 | 28.8 | inhibition [8]: 20.7% |
| CCCCC1OC(=O)c2cc(OCc3ccc(CN(CC)Cc4ccccc4)c(O)c3)ccc21 (configuration not stated) | 20.5 | – | 5.6 | 14.8 | 1.96 | 1.15 | – | – |
| CCCCC1OC(=O)c2cc(OCc3ccc(CN4CCCCC4)c(O)c3)ccc21 (configuration not stated) | 0.087 | 0.041 | < 5 | 18.1 | 0.3 | 1.86 | – | inhibition at 0.5 µM (BV-2 [9]): 30.4%; inhibition (Acetylcholinesterase [17]): Active; Activity [18]: Active; inhibition [19]: Active; Activity (PC-12 [20]): Toxic; viability at 25 µM (PC-12 [21]): 80.2%; viability at 10 µM (PC-12 [10]): 71.1%; viability at 4 µM (PC-12 [22]): 56.3%; Activity (BV-2 [23]): Non-Toxic; Activity (BV-2 [24]): Non-Toxic; inhibition (BV-2 [25]): Active; inhibition (BV-2 [26]): Active; inhibition at 2.5 µM (BV-2 [12]): 43.5%; inhibition at 10 µM (BV-2 [13]): 58.9%; inhibition at 0.5 µM (BV-2 [14]): 32.7%; inhibition at 2.5 µM (BV-2 [15]): 47.8%; inhibition at 10 µM (BV-2 [16]): 63.2% |
| CCCCC1OC(=O)c2cc(OCc3cccc(CN4CCN(C)CC4)c3O)ccc21 (configuration not stated) | – | – | < 5 | 12.5 | – | 2.33 | 32.3 | inhibition [8]: 29.4% |
| CCCCC1OC(=O)c2cc(OCc3ccc(CN(C)C)c(O)c3)ccc21 (configuration not stated) | 5.39 | 8.78 | 11.8 | 29 | 6.9 | 1.62 | – | – |
